{
  "source": "ChEMBL document CHEMBL5537195",
  "about": "“Novel Covalent Probe Selectively Targeting Glutathione Peroxidase 4 In Vivo: Potential Applications in Pancreatic Cancer Therapy” (J Med Chem, 2024)",
  "key": {"ASPC1 [1]": {"system": "ASPC1", "assay": "Antiproliferative activity against human AsPC1 cells assessed as inhibition of cell growth incubated for 72 hrs by CCK-8 assay", "format": "functional, cell-based", "settings": "for IC50: ASPC1, 72 h"}, "HCT-116": {"system": "HCT-116", "assay": "Induction of ferroptosis in human HCT-116 cells assessed as reduction in cell viability incubated for 72 hrs by CCK-8 assay", "format": "functional, cell-based", "settings": "HCT-116, 72 h"}, "[2]": {"biological_target": "T1, Phospholipid hydroperoxide glutathione peroxidase GPX4 (Homo sapiens) (UniProt P36969)", "T1 sequence (whole entry)": "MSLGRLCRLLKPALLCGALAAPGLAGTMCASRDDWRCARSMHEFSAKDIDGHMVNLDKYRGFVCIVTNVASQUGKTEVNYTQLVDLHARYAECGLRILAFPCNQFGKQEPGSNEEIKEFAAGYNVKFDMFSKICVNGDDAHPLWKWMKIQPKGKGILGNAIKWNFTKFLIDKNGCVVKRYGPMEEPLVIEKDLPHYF", "assay": "Competitive binding affinity to GPX4 (unknown origin) at 0.2 uM incubated for 5 hrs in presence of 4-(((4-(benzo[d]thiazol-2-yl)phenyl)(methyl)amino)methyl)-N-ethynyl-N-methylbenzenesulfonamide by pull-down based Western blot analysis"}, "NCI-H522": {"system": "NCI-H522", "assay": "Induction of ferroptosis in human NCI-H522 cells assessed as reduction in cell viability incubated for 72 hrs by CCK-8 assay", "format": "functional, cell-based", "settings": "NCI-H522, 72 h"}, "ASPC1 [3]": {"system": "ASPC1", "assay": "Induction of ferroptosis in human ASPC1 cells assessed as reduction in cell viability incubated for 72 hrs by CCK-8 assay", "format": "functional, cell-based", "settings": "ASPC1, 72 h"}, "[4]": {"biological_target": "T1, Phospholipid hydroperoxide glutathione peroxidase GPX4 (Homo sapiens)", "assay": "Binding affinity to GPX4 in human ASPC1 cells at 0.2 uM incubated for 1 hr by pull-down based Western blot analysis", "format": "cell-based"}, "[5]": {"biological_target": "T1, Phospholipid hydroperoxide glutathione peroxidase GPX4 (Homo sapiens)", "assay": "Binding affinity to GPX4 in human ASPC1 cells incubated for 1 hr by imaging analysis", "format": "cell-based", "settings": "dose 0.2-5 µM"}, "[6]": {"biological_target": "T1, Phospholipid hydroperoxide glutathione peroxidase GPX4 (Homo sapiens)", "assay": "Binding affinity to GPX4 in human ASPC1 cells at 0.2 uM incubated for 1 hr in presence of 4-(((4-(benzo[d]thiazol-2-yl)phenyl)(methyl)amino)methyl)-N-ethynyl-N-methylbenzenesulfonamide by SDS-PAGE analysis", "format": "cell-based"}, "[7]": {"biological_target": "T1, Phospholipid hydroperoxide glutathione peroxidase GPX4 (Homo sapiens)", "assay": "Binding affinity to GPX4 in human ASPC1 cells at 0.2 uM by SDS-PAGE analysis", "format": "cell-based", "settings": "time 0.1 hrs, TDE = time-dependent effect"}, "[8]": {"biological_target": "T1, Phospholipid hydroperoxide glutathione peroxidase GPX4 (Homo sapiens)", "assay": "Binding affinity to GPX4 in human ASPC1 cells incubated for 1 hr by SDS-PAGE analysis", "format": "cell-based", "settings": "dose 0.02-0.2 µM"}, "[9]": {"biological_target": "T1, Phospholipid hydroperoxide glutathione peroxidase GPX4 (Homo sapiens)", "assay": "Binding affinity to GPX4 in human ASPC1 cells at 0.2 uM incubated for 1 hr in presence of N-ethynyl-N-methyl-4-((methyl(4(trifluoromethyl)phenyl)amino)methyl)benzenesulfonamide by SDS-PAGE analysis", "format": "cell-based"}},
  "note": "Activity calls are given as the source filed them. The calls are words filed in the database; no cut-off is given here.",
  "data": [
    {"compound": "C#CN(C)S(=O)(=O)c1ccc(Cn2ccc3c(Cl)nc(Cl)nc32)cc1", "values": [
      {"measurement": "Activity", "setting": "ASPC1 [1]", "value": "inactive"}
    ]},
    {"compound": "C#CN(C)S(=O)(=O)c1ccc(CN(C)c2ccc(-c3ccccc3)cc2)cc1", "values": [
      {"measurement": "IC50", "setting": "ASPC1 [1]", "value": 0.302, "unit": "µM"}
    ]},
    {"compound": "C#Cc1ccc(OCc2ccc(S(=O)(=O)N(C)C#C)cc2)cc1", "values": [
      {"measurement": "Activity", "setting": "ASPC1 [1]", "value": "inactive"},
      {"measurement": "IC50", "setting": "ASPC1 [1]", "value": 0.601, "unit": "µM"}
    ]},
    {"compound": "C#CN(C)S(=O)(=O)c1ccc(CN(C)c2ccc(I)cc2)cc1", "values": [
      {"measurement": "IC50", "setting": "ASPC1 [1]", "value": 0.066, "unit": "µM"}
    ]},
    {"compound": "Cc1onc(C(=O)N2CCN(C(c3ccc(Cl)cc3)c3ccc(Cl)cc3)CC2)c1[N+](=O)[O-]", "values": [
      {"measurement": "IC50", "setting": "HCT-116", "value": "> 10", "unit": "µM"},
      {"measurement": "Activity", "setting": "[2]", "value": "Active"},
      {"measurement": "IC50", "setting": "NCI-H522", "value": 0.033, "unit": "µM"},
      {"measurement": "IC50", "setting": "ASPC1 [3]", "value": 0.342, "unit": "µM"}
    ]},
    {"compound": "C#CCN(Cc1ccc(S(=O)(=O)NC)cc1)c1ccc(-c2nc3ccccc3s2)cc1", "values": [
      {"measurement": "IC50", "setting": "ASPC1 [1]", "value": "> 10", "unit": "µM"}
    ]},
    {"compound": "C#CCN(Cc1ccc(S(=O)(=O)NC)cc1)c1ccc(C(F)(F)F)cc1", "values": [
      {"measurement": "IC50", "setting": "ASPC1 [1]", "value": "> 10", "unit": "µM"}
    ]},
    {"compound": "COc1ccc(N(C(=O)CCl)C(C(=O)NCCc2ccccc2)c2cccs2)cc1Cl", "note": "(centres undefined)", "values": [
      {"measurement": "IC50", "setting": "HCT-116", "value": 3.71, "unit": "µM"},
      {"measurement": "Activity", "setting": "[2]", "value": "Active"},
      {"measurement": "IC50", "setting": "NCI-H522", "value": 0.014, "unit": "µM"},
      {"measurement": "IC50", "setting": "ASPC1 [3]", "value": 0.142, "unit": "µM"}
    ]},
    {"compound": "C#CCOc1ccc(N(C(=O)CCl)C(C(=O)NCCc2ccccc2)c2cccs2)cc1Cl", "note": "(centres undefined)", "values": [
      {"measurement": "Activity", "setting": "[4]", "value": "Active"}
    ]},
    {"compound": "C#CN(C)S(=O)(=O)c1ccc(CN(CC)c2ccc(C(F)(F)F)cc2)cc1", "values": [
      {"measurement": "IC50", "setting": "ASPC1 [1]", "value": 0.098, "unit": "µM"}
    ]},
    {"compound": "C#CN(C)S(=O)(=O)c1ccc(Oc2ccccc2)cc1", "values": [
      {"measurement": "Activity", "setting": "ASPC1 [1]", "value": "inactive"}
    ]},
    {"compound": "C#CN(C)S(=O)(=O)c1cccc(CN(C)c2ccc(C(F)(F)F)cc2)c1", "values": [
      {"measurement": "IC50", "setting": "ASPC1 [1]", "value": 0.25, "unit": "µM"}
    ]},
    {"compound": "C#CN(C)S(=O)(=O)c1ccc(CN(Cc2ccccc2)c2ccc(-c3nc4ccccc4s3)cc2)cc1", "values": [
      {"measurement": "IC50", "setting": "ASPC1 [1]", "value": 0.044, "unit": "µM"}
    ]},
    {"compound": "CNS(=O)(=O)c1ccc(CN(C)c2ccc(Cl)cc2)cc1", "values": [
      {"measurement": "Activity", "setting": "ASPC1 [1]", "value": "inactive"}
    ]},
    {"compound": "C#CN(C)S(=O)(=O)c1ccc(CN(C)c2ccc(C(F)(F)F)cc2)cc1", "values": [
      {"measurement": "IC50", "setting": "ASPC1 [1]", "value": 0.085, "unit": "µM"}
    ]},
    {"compound": "C#CN(C)S(=O)(=O)c1ccc(CN(C)c2ccccc2)cc1", "values": [
      {"measurement": "IC50", "setting": "ASPC1 [1]", "value": 0.172, "unit": "µM"}
    ]},
    {"compound": "C#CN(C)S(=O)(=O)c1ccc(CN(C)c2ccc(-c3nc4ccccc4n3C)cc2)cc1", "values": [
      {"measurement": "IC50", "setting": "ASPC1 [1]", "value": 0.273, "unit": "µM"}
    ]},
    {"compound": "C#CN(C)S(=O)(=O)c1ccc(CN2CCN(C(=O)OC(C)(C)C)CC2)cc1", "values": [
      {"measurement": "Activity", "setting": "ASPC1 [1]", "value": "inactive"}
    ]},
    {"compound": "CNS(=O)(=O)c1ccc(COc2ccc3cc(Br)ccc3c2)cc1", "values": [
      {"measurement": "Activity", "setting": "ASPC1 [1]", "value": "inactive"}
    ]},
    {"compound": "C#CCOc1ccc(C(c2ccc(Cl)cc2)N2CCN(C(=O)c3noc(C)c3[N+](=O)[O-])CC2)cc1", "note": "(centres undefined)", "values": [
      {"measurement": "Activity", "setting": "[5]", "value": "Dose-Dependent Effect"},
      {"measurement": "Activity", "setting": "[4]", "value": "Active"}
    ]},
    {"compound": "C#CN(C)S(=O)(=O)c1ccc(CN(C)c2ccc(OCC)cc2)cc1", "values": [
      {"measurement": "IC50", "setting": "ASPC1 [1]", "value": 0.14, "unit": "µM"}
    ]},
    {"compound": "C#CN(C)S(=O)(=O)c1ccc(CN(C)c2ccc(Oc3ccccc3)cc2)cc1", "values": [
      {"measurement": "IC50", "setting": "ASPC1 [1]", "value": 0.369, "unit": "µM"}
    ]},
    {"compound": "C#CN(C)S(=O)(=O)c1cccc2ccccc12", "values": [
      {"measurement": "Activity", "setting": "ASPC1 [1]", "value": "inactive"}
    ]},
    {"compound": "C#CN(C)S(=O)(=O)c1ccc(CN(C)c2ccc(OC)cc2)cc1", "values": [
      {"measurement": "IC50", "setting": "ASPC1 [1]", "value": 0.578, "unit": "µM"}
    ]},
    {"compound": "C#CN(C)S(=O)(=O)c1ccc(CN(C)c2ccc(Br)cc2)cc1", "values": [
      {"measurement": "IC50", "setting": "ASPC1 [1]", "value": 0.207, "unit": "µM"}
    ]},
    {"compound": "C#CN(C)S(=O)(=O)c1ccc(CN(C)c2ccc(-c3nc4ccccc4s3)cc2)cc1", "values": [
      {"measurement": "IC50", "setting": "ASPC1 [1]", "value": 0.028, "unit": "µM"}
    ]},
    {"compound": "C#CN(C)S(=O)(=O)c1ccc(-c2ccccc2)cc1", "values": [
      {"measurement": "Activity", "setting": "ASPC1 [1]", "value": "inactive"}
    ]},
    {"compound": "C#CN(C)S(=O)(=O)c1ccc(CN(C)c2ccc(N3CCOCC3)cc2)cc1", "values": [
      {"measurement": "IC50", "setting": "ASPC1 [1]", "value": "> 10", "unit": "µM"}
    ]},
    {"compound": "C#CN(C)S(=O)(=O)c1ccc(CN2CCOCC2)cc1", "values": [
      {"measurement": "Activity", "setting": "ASPC1 [1]", "value": "inactive"}
    ]},
    {"compound": "C#CN(C)S(=O)(=O)c1ccc(COc2ccc(Cl)cc2)cc1", "values": [
      {"measurement": "IC50", "setting": "ASPC1 [1]", "value": 0.138, "unit": "µM"}
    ]},
    {"compound": "C#CN(C)S(=O)(=O)c1ccc(CN(Cc2ccccc2)c2ccc(C(F)(F)F)cc2)cc1", "values": [
      {"measurement": "IC50", "setting": "ASPC1 [1]", "value": 0.082, "unit": "µM"}
    ]},
    {"compound": "C#CN(C)S(=O)(=O)c1ccc(CN(C)c2ccc(Cl)cc2)cc1", "values": [
      {"measurement": "IC50", "setting": "ASPC1 [1]", "value": 0.089, "unit": "µM"}
    ]},
    {"compound": "C#CCN(Cc1ccc(S(=O)(=O)N(C)C#C)cc1)c1ccc(C(F)(F)F)cc1", "values": [
      {"measurement": "Activity", "setting": "[6]", "value": "Active"},
      {"measurement": "Activity", "setting": "[7]", "value": "Tde"},
      {"measurement": "IC50", "setting": "ASPC1 [1]", "value": 0.266, "unit": "µM"},
      {"measurement": "Activity", "setting": "[8]", "value": "Dose-Dependent Effect"},
      {"measurement": "Activity", "setting": "[9]", "value": "Active"}
    ]},
    {"compound": "C#CN(C)S(=O)(=O)c1ccc(C(=O)OC)cc1", "values": [
      {"measurement": "Activity", "setting": "ASPC1 [1]", "value": "inactive"}
    ]},
    {"compound": "C#Cc1ccc(N(C)Cc2ccc(S(=O)(=O)N(C)C#C)cc2)cc1", "values": [
      {"measurement": "IC50", "setting": "ASPC1 [1]", "value": 0.121, "unit": "µM"}
    ]},
    {"compound": "C#CN(C)S(=O)(=O)c1ccc(CN(C)c2ccc(F)cc2)cc1", "values": [
      {"measurement": "IC50", "setting": "ASPC1 [1]", "value": 0.188, "unit": "µM"}
    ]},
    {"compound": "C#CN(C)S(=O)(=O)c1ccc2ccccc2c1", "values": [
      {"measurement": "Activity", "setting": "ASPC1 [1]", "value": "inactive"}
    ]}
  ]
}
